Columns and labels:
NK-92 = test: Western blot analysis; format: cell-based, human
Experimental: Western blot analysis. Cells were plated in a 6-well plate and incubated overnight before the spent media was replaced with drugged media. Drug treatment lasted for indicated durations. Protein was extracted using radioimmunoprecipitation (RIPA) assay buffer (Cat #R0278, Sigma-Aldrich, St. Louis, MO, USA) containing cOmplete™, Mini, EDTA-free Protease Inhibitor Cocktail (Cat #4693159001, Roche, Basel, Switzerland) from sub-confluent cells. Denaturing sample buffer was added, samples were boiled at 95° C. for ten minutes, and an equal amount of protein lysate was electrophoresed through NuPAGE™ 4 to 12%, bis-Tris, 1.5 mm, Mini Protein Gels (Invitrogen, Waltham, MA, USA) then transferred to PVDF membranes. The PVDF membrane was blocked with 5% non-fat milk (Sigma-Aldrich, St. Louis, MO, USA) in 1× TTBS. Primary antibodies were incubated with the transferred PVDF membrane in blocking buffer at 4° C. overnight. Secondary antibodies included Goat anti-Rabbit IgG (H+L) Secondary Antibody, HRP (Cat #31460, Invitrogen, Waltham, MA, USA), and Goat anti-Mouse IgG (H+L) Secondary Antibody, HRP (Cat #31430, Invitrogen, Waltham, MA, USA). The signal was detected using Pierce™ ECL Western Blotting Substrate (Cat #32106, Thermo Scientific, Waltham, MA, USA) and a Syngene Imaging System (RRID: SCR_015770).
Because of the differential impact of elraglusib on tumor and immune cells that the inventors observed via Western blot, the inventors compared the levels of another survival protein Mcl-1 in NK-92 natural killer cells.

[1] = toxicity monitoring in CT-26 BALB/c mice: body weight, serum chemistry, complete blood count; format: in vivo, mouse
Experimental: In vivo studies. The experimental in vivo protocol (Protocol #19-01-003) was approved by the Institutional Animal Care and Use Committee of Brown University (Providence, RI, USA). Six-week to seven-week-old female BALB/c mice (RRID: IMSR_JAX:000651) were purchased from Taconic. A total of 50,000 cells were suspended in 50 μL ice-cold PBS and 50 μL Matrigel (Catalog #354234, Corning, New York, NY, USA), and 100 μL was injected subcutaneously into the rear flanks. Once tumor volume reached at least 100 mm^3, mice were randomly assigned to one of seven groups (12 mice/group): Control (isotype), elraglusib, elraglusib+Isotype, anti-PD-1, anti-PD-L1, elraglusib+anti-PD-1, and elraglusib+anti-PD-L1. All treatments were delivered by IP injection using the following dosing schedule: Isotype (70 mg/kg, twice a week), elraglusib (70 mg/kg, twice a week), anti-PD-1 (10 mg/kg, twice a week), anti-PD-L1 (10 mg/kg, twice a week). Treatment dosing was determined based on previous studies of elraglusib and anti-PD-1/anti-PD-L1. Ugolkov et al., Anticancer Drugs, 29, 717-724 (2018); McClanahan et al., Blood, 126, 203-211 (2015); Bernardo et al., Oncoimmunology, 10, 1881268 (2021). The solvent for elraglusib was DMSO and the formulation buffer for elraglusib was made using 75% PEG400, 7% Tween 80, and 18% Ethanol. The treatment continued until mice developed signs of discomfort from excessive tumor growth. Mice were weighed once a week to monitor signs of drug toxicity. The length (L) and width (W) of the masses were measured three times per week with a digital caliper, and the tumor volume was calculated by applying the formula: 0.5LW2 Collection of whole blood and serum was performed by cardiac puncture and sent to Antech Diagnostics GLP (Morrisville, NC, USA) for blood cell count and chemistry tests, or in-house cytokine profiling. Tumors and organs were dissected and harvested for analysis by immunohistochemistry and flow cytometry.
The inventors evaluated the potential for elraglusib to increase the efficacy of immune checkpoint blockade and utilized a syngeneic murine colon carcinoma BALB/c murine model using a MSS cell line CT-26 (FIG. 4A). Mice were randomly assigned to one of seven groups: isotype (N=12), elraglusib (N=12), elraglusib+isotype (N=12), anti-PD-1 (N=12), anti-PD-L1 (N=12), elraglusib+anti-PD-1 (N=12), and elraglusib+ anti-PD-L1 (N=12). […] The inventors saw the most sustained response in the elraglusib and anti-PD-L1 combination therapy group.
TABLE 13 description. […] Whole blood from long-term mice sacrificed was submitted for serum chemistry analysis. Results are shown from the complete metabolic panel and complete blood count with differential. ALB: Albumin, ALP: Alkaline Phosphatase, ALT: Alanine aminotransferase, AMY: Amylase, ANIS: Anisocytosis, AST: Aspartate aminotransferase, ATYP: Atypical Lymphs, BAS: Absolute Basophils, BAS%: % Basophils, BUN: Urea Nitrogen, CA: Calcium, CHOL: Cholesterol, CL: Chloride, CPK: Creatine kinase, CPLT: Clumped Platelets, CREA: Creatinine, DBIL: Direct Bilirubin, EOS: Absolute Eosinophils, EOS% : % Eosinophils, GGT: Gamma-glutamyl Transferase, GLU: Glucose, HB: Hemoglobin, HCT: Hematocrit, HJB: Howell-Jolly Bodies, HYPO: Hypochromasia, HYPR: Hyperchromasia, K: Potassium, LDH: Lactate Dehydrogenase, LIP: Lipase, LPLT: Large Platelets, LUC: Absolute Large Unstained Cells, LUC%: % Large Unstained Cells, LYM: Absolute Lymphocytes, LYM%: % Lymphocytes, MAC: Macrocytosis, MCH: Mean Corpuscular Hemoglobin, MCHC: Mean Corpuscular Hemoglobin […], MCV: Mean Corpuscular Volume, MG: Magnesium, MIC: Microcytosis, MON: Absolute Monocytes, MON%: % Monocytes, NA: Sodium, NEU: Absolute Neutrophils, NEU%: % Neutrophils, PHOS: Inorganic Phosphorus, PLT: Platelet Count, POLK: Poikilocytosis, RBC: Red Blood Cell Count, TBIL: Total Bilirubin, TPRO: Total Protein, TRIG: Triglyceride, WBC: White Blood Cell Count.

[2] = immune cells, cell line not given

Cn1cc(C2=C(c3coc4ccc(F)cc34)C(=O)NC2=O)c2cc3c(cc21)OCO3 [elraglusib]
NF-κB-inducing kinase (NIK) expression (NK-92; [2]): increases
Survivin expression (NK-92; [2]): increases
Mcl-1 protein expression (NK-92; through the 72-hour endpoint): did not observe a significant decrease
ALB (Albumin) ([1]; long-term mice sacrificed): 2.7 g/dL
ALP (Alkaline Phosphatase) ([1]; long-term mice sacrificed): 4 U/L
ALT (Alanine aminotransferase) ([1]; long-term mice sacrificed): 26 U/L
AMY (Amylase) ([1]; long-term mice sacrificed): 275 U/L
AST (Aspartate aminotransferase) ([1]; long-term mice sacrificed): 198 U/L
BUN (Urea Nitrogen) ([1]; long-term mice sacrificed): 27 mg/dL
CHOL (Cholesterol) ([1]; long-term mice sacrificed): 101 mg/dL
CL (Chloride) ([1]; long-term mice sacrificed): 111 mmol/L
CPK (Creatine kinase) ([1]; long-term mice sacrificed): 1968 U/L
CREA (Creatinine) ([1]; long-term mice sacrificed): 0.2 mg/dL
DBIL (Direct Bilirubin) ([1]; long-term mice sacrificed): 0 mg/dL
GGT (Gamma-glutamyl Transferase) ([1]; long-term mice sacrificed): 0 U/L
GLU (Glucose) ([1]; long-term mice sacrificed): 230 mg/dL
K (Potassium) ([1]; long-term mice sacrificed): >10.0 mmol/L
LDH (Lactate Dehydrogenase) ([1]; long-term mice sacrificed): 2230 U/L
LIP (Lipase) ([1]; long-term mice sacrificed): 59 U/L
MG (Magnesium) ([1]; long-term mice sacrificed): 1.2 mg/dL
NA (Sodium) ([1]; long-term mice sacrificed): 146 mmol/L
PHOS (Inorganic Phosphorus) ([1]; long-term mice sacrificed): 8.2 mg/dL
TBIL (Total Bilirubin) ([1]; long-term mice sacrificed): 0.5 mg/dL
TPRO (Total Protein) ([1]; long-term mice sacrificed): 4.5 g/dL
TRIG (Triglyceride) ([1]; long-term mice sacrificed): 136 mg/dL
renal function (BUN and creatinine) ([1]; mouse, in vivo): maintained normal renal function

Reference: patent publication US20240041830A1, “CIRCULATING BIOMARKERS OF RESPONSE TO PD-1/PD-L1 BLOCKADE AND GSK-3 INHIBITION” (Brown University, priority 2022, published 2024)
